# pIC50: −log10 of the molar value.
# Tests used:
# [1] = tested on: Ewing's sarcoma cells with decreased levels of GSTM4; assay: MTT survival assay, wild-type (luc-RNAi) versus reduced GSTM4 (GSTM4-4-RNAi) Ewing's sarcoma cells; assay type: cell-based, human
# Description: Chemotherapeutic sensitivity assays. The sensitivity of Ewing's sarcoma cells to chemotherapeutic agents was determined via the following experimental procedures. The indicated Ewing's sarcoma cells were seeded at a density of 2×10^4 cells/well in 24-well plates on day-0. On day 1, cells were incubated with varying concentrations of the indicated drug or drugs for 3 days. Subsequently, MTT cell proliferation assays were performed according to the manufacturer's instructions (Cayman Chemical Company, Ann Arbor, Mich.).
# To test whether GSTM4 contributed to the chemotherapeutic resistance profile of Ewing's sarcoma, wild-type (luc-RNAi) and reduced GSTM4 (GSTM4-4-RNAi) cells were treated with increasing dosages of chemotherapeutic drugs and tested using MTT survival assays. The chemotherapeutic agents that were tested included etoposide, doxorubicin, and melphalan.
# It was further determined that GSTM4 can alter the sensitivity of Ewing's sarcoma cells for fenretinide. […] It was further determined that decreased GSTM4 levels can change intracellular redox potential.
# JS-K (provided by Dr. Paul Shami at the University of Utah) is a GST-activated prodrug with potent anti-neoplastic activity. A673, Ewing's sarcoma, cells with wild type (Luc-RNAi) or decreased GSTM4 levels (GSTM4-RNAi infected cells) were seeded in 24-well plates at a density of 2×10^4 cells/well. GSTM4 decreased cells or negative controls were treated with increasing concentrations of JS-K (0, 0.3125, 0.625, 1.25, 2.5, 5, or 10 μM) for 72 hours, followed by an MTT cell viability analysis.
# A673 cells = assay: MTT cell proliferation assay in A673 Ewing's sarcoma cells; assay type: cell-based; conditions: Homo sapiens, 72 h, 3 days, read-out: IC50, inhibition of A673 cell proliferation
# Description: The A673 cells were seeded at a density of 2×10^4 cells/well in 24-well plate on day 0.
SMILES,Sensitivity of cells with decreased GSTM4 levels to the drug compared to control cells [1],pIC50 (A673 cells)
"CCOC(=O)N1CCN(/[N+]([O-])=N/Oc2ccc([N+](=O)[O-])cc2[N+](=O)[O-])CC1 [JS-K, O^2-(2,4-Dinitrophenyl)1-[(4-Ethoxycarbonyl)piperazin-1-yl]diazen-1-ium-1,2-diolate]",less sensitive,
"O=[N+]([O-])c1ccc(SCCCCCCO)c2nonc12 [NBDHEX, 6-(7-nitro-2,1,3-benzoxadiazol-4-ylthio) hexanol]",,6.30
COc1cccc2c1C(=O)c1c(O)c3c(c(O)c1C2=O)C[C@@](O)(C(=O)CO)C[C@@H]3O[C@H]1C[C@H](N)[C@H](O)[C@H](C)O1 [doxorubicin],not sensitive,
COc1cc([C@@H]2c3cc4c(cc3[C@@H](O[C@@H]3O[C@@H]5CO[C@@H](C)O[C@H]5[C@H](O)[C@H]3O)[C@H]3COC(=O)[C@H]23)OCO4)cc(OC)c1O [etoposide],increase in sensitivity,
CC1=C(/C=C/C(C)=C/C=C/C(C)=C/C(=O)Nc2ccc(O)cc2)C(C)(C)CCC1 [fenretinide],more sensitive,
